Results published in patent publication US10428101B2, “Preparation of glycosphingosines” (The Regents of the University of California, priority 2013, dated 2019).
Marks after values point to notes of the source that are not given here.

Experiments:
[1] = Water solubility of fluorous-tagged lactoside; format: physicochemical; settings: qualitative statement
[2] = target: Pasteurella multocida α2-3-sialyltransferase 1 E271F/R313Y mutant (PmST1 E271F/R313Y) (Pasteurella multocida, UniProt Q15KI8, E271F/R313Y); settings: for Conversion (%): acceptor lactoside to Neu5Acα2-3 product, OPME sialylation pH 8.5, assayed at 4 h, TLC and ImageQuant 5.2
Description: To test the suitability of lactoside 1 as an acceptor sugar, a one-pot two-enzyme system containing PmST1 E271F/R313Y and Neisseria meningitidis CMP-sialic acid synthetase (NmCSS) (Scheme 2) was used.
To increase the solubility of the fluorous-tagged lactosides and to examine how the length of the fluorous tags affects the efficiency of the enzymatic reactions, fluorous-tagged lactosides (2-4) (Scheme 1) containing a propylamide linker and different lengths of fluoroalkyl chains were synthesized and used as the acceptor sugars in a one-pot two-enzyme system containing NmCSS and PmST1 E271F/R313Y (Scheme 3).
The reactions were monitored by TLC (EtOAc:MeOH:H2O:AcOH=5:2:1:0.1).

[3] = target: Photobacterium damselae α2-6-sialyltransferse (Pd2,6ST) (Photobacterium damselae, UniProt O66375); test: One-pot two-enzyme α2-6-sialylation of fluorous-tagged lactoside acceptors (NmCSS + Pd2,6ST), conversion by TLC/ImageQuant; format: biochemical; settings: acceptor lactoside to Neu5Acα2-6 product; OPME sialylation pH 8.5; assayed at 4 h; TLC and ImageQuant 5.2
Chain of Photobacterium damselae α2-6-sialyltransferse (Pd2,6ST) (O66375 entry or part of it): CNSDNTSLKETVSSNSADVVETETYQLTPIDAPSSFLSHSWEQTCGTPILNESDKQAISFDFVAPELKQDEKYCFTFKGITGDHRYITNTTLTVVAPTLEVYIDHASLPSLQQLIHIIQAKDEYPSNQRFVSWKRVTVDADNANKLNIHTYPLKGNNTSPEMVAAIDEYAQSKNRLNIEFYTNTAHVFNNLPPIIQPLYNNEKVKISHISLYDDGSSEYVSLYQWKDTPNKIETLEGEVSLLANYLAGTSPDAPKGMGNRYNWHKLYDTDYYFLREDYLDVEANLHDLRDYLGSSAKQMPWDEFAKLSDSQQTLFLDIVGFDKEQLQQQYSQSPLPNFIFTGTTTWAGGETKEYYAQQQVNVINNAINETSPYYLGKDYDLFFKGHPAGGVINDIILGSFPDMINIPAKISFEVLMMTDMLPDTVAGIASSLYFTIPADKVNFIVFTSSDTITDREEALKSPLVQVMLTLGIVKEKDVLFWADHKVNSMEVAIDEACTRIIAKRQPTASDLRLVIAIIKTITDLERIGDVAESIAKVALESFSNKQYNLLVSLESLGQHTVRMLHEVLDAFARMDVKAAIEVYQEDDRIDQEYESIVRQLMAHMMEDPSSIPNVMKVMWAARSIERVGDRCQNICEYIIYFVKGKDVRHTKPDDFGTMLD
Description: B: One-pot two-enzyme sialylation reaction with Pd2,6ST.
Reaction conversion rates were determined by staining the TLC plates with p-anisaldehyde sugar stain and then using ImageQuant 5.2 software to compare the relative intensities between the glycosylation product spot and the lactoside acceptor spot of each reaction (FIG. 1). For external standard comparison, each lactoside acceptor spot was also compared with its corresponding standard 10 mM stock solution spot to verify the conversion rates of each reaction.
Pd2,6ST (0.72 μg) was added to a 0.5 mL centrifuge tube containing 0.01μmol (1 eq.) of a lactoside acceptor (chosen from 1-8), Neu5Ac (1.2 eq.), CTP (2 eq.), Tris-HCl buffer (100 mM, pH 8.5), MgCl2 (20 mM), NmCSS (0.08 μg), and water (total volume=10 μL). The reactions were monitored by TLC (EtOAc:MeOH:H2O:AcOH=5:2:1:0.1).

Chain of Pasteurella multocida α2-3-sialyltransferase 1 E271F/R313Y mutant (PmST1 E271F/R313Y) (Q15KI8 26-412 E271F/R313Y): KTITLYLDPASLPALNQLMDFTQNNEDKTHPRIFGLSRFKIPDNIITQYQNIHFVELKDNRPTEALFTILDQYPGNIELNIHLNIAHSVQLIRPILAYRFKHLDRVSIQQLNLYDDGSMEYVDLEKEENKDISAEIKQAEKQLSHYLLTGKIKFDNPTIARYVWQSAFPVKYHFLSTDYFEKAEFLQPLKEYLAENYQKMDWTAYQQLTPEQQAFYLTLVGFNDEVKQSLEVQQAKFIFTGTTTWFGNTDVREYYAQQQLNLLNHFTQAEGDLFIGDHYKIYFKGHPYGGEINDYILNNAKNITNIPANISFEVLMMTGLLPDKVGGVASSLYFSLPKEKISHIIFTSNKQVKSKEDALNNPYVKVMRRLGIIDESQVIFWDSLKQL

| Substance | water solubility [1] | sialylated product detected (trace amount) ([2]; one-pot two-enzyme system PmST1 E271F/R313Y and NmCSS, by TLC and MALDI-TOF) | Conversion (%) [3] | Conversion (%) [2] |
| --- | --- | --- | --- | --- |
| LacβC8F17 [Compound 1] | low | < 10% | – | – |
| LacβProNH-C8F17 [Compound 2] | – | – | 31 ± 18^[b] % | 22 ± 12^[b] % |
| LacβProNH-HEG-C6F13 [Compound 8] | – | – | 66 ± 25^[b] % | 80 ± 15^[b] % |
| LacβProNH-HEG-C8F17 [Compound 6] | – | – | 52 ± 5.6^[b] % | 55 ± 7.8^[b] % |
| LacβProNH-TEG-C6F13 [Compound 7] | – | – | 65 ± 7.9^[b] % | 70 ± 4.8^[b] % |
| LacβProNH-TEG-C8F17 [Compound 5] | – | – | 47 ± 10^[b] % | 65 ± 11^[b] % |
| LacβProNH—C3F7 [Compound 4] | – | – | qt.^[b] | 89 ± 9.8^[b] % |
| LacβProNH—C6F13 [Compound 3] | – | – | 94 ± 6.0^[b] % | 92 ± 5.5^[b] % |
